Laboratory results reported in PubChem BioAssay (NCI).
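Cultured in 96-well plates, cells were exposed to test compound for 48 hours across five concentrations. TGI is the concentration that stops growth completely.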

How the values were obtained:
Assay in all cases: growth of human tumour cells (NCI), 48 h
[1] = tested on: UO-31 renal
[2] = tested on: SNB-19 CNS
[3] = tested on: NCI-H460 lung
[4] = tested on: HCC-2998 colon
[5] = tested on: MCF7 breast
[6] = tested on: SNB-75 CNS
[7] = tested on: MALME-3M melanoma
[8] = tested on: SF-295 CNS
[9] = tested on: EKVX NSCLC
[10] = tested on: SN12C renal
[11] = tested on: SK-MEL-5 melanoma
[12] = tested on: MOLT-4 leukemia
[13] = tested on: NCI-H23 lung
[14] = tested on: SR leukemia
[15] = tested on: LOX IMVI melanoma
[16] = tested on: HCT-116 colon
[17] = tested on: U251 CNS
[18] = tested on: UACC-62 melanoma
[19] = tested on: M14 melanoma
[20] = tested on: CCRF-CEM leukemia
[21] = tested on: HL-60(TB) leukemia
[22] = tested on: OVCAR-5 ovarian
[23] = tested on: KM12 colon
[24] = tested on: NCI/ADR-RES ovarian
[25] = tested on: HOP-92 NSCLC
[26] = tested on: BT-549 breast
[27] = tested on: MDA-MB-435
[28] = tested on: UACC-257 melanoma
[29] = tested on: A549 NSCLC
[30] = tested on: COLO 205 colon
[31] = tested on: T-47D breast
[32] = tested on: SF-539 CNS
[33] = tested on: MDA-MB-231 breast
[34] = tested on: HCT-15 colon
[35] = tested on: SK-MEL-2 melanoma
[36] = tested on: TK-10 renal
[37] = tested on: RXF 393 renal
[38] = tested on: OVCAR-4 ovarian
[39] = tested on: DU-145 prostate
[40] = tested on: K-562 leukemia
[41] = tested on: IGROV1 ovarian
[42] = tested on: HOP-62 NSCLC
[43] = tested on: SW-620 colon
[44] = tested on: HS 578T breast
[45] = tested on: SK-OV-3 ovarian
[46] = tested on: 786-0 renal
[47] = tested on: HT29 colon
[48] = tested on: SK-MEL-28 melanoma
[49] = tested on: CAKI-1 renal
[50] = tested on: PC-3 prostate
[51] = tested on: OVCAR-8 ovarian
[52] = tested on: RPMI-8226 leukemia
[53] = tested on: NCI-H226 lung
[54] = tested on: OVCAR-3 ovarian
[55] = tested on: SF-268 CNS
[56] = tested on: MDA-N
[57] = tested on: A498 renal
[58] = tested on: ACHN renal

O=C(/C=C/c1ccc(OCc2ccccc2)cc1)NCc1ccc(C(=O)NCCc2c[nH]c3ccccc23)cc1
TGI [1]: > 100 µM
TGI [2]: 29.9 µM
TGI [3]: > 100 µM
TGI [4]: > 100 µM
TGI [5]: > 100 µM
TGI [6]: 38.1 µM
TGI [7]: 43.3 µM
TGI [8]: 17.2 µM
TGI [9]: > 100 µM
TGI [10]: > 100 µM
TGI [11]: > 58.6 µM
TGI [12]: > 100 µM
TGI [13]: 38.8 µM
TGI [14]: > 55.3 µM
TGI [15]: > 100 µM
TGI [16]: > 100 µM
TGI [17]: 20.5 µM
TGI [18]: 51.7 µM
TGI [19]: > 62 µM
TGI [20]: > 100 µM
TGI [21]: > 100 µM
TGI [22]: 69.4 µM
TGI [23]: > 100 µM
TGI [24]: > 100 µM
TGI [25]: 61.1 µM
TGI [26]: > 100 µM
TGI [27]: > 100 µM
TGI [28]: > 100 µM
TGI [29]: 87.6 µM
TGI [30]: > 100 µM
TGI [31]: > 100 µM
TGI [32]: 11.2 µM
TGI [33]: 61.1 µM
TGI [34]: > 100 µM
TGI [35]: > 82.6 µM
TGI [36]: > 43 µM
TGI [37]: 24.9 µM
TGI [38]: > 48.4 µM
TGI [39]: > 100 µM
TGI [40]: > 100 µM
TGI [41]: 56.1 µM
TGI [42]: 15.6 µM
TGI [43]: > 100 µM
TGI [44]: 29.9 µM
TGI [45]: 44.4 µM
TGI [46]: 16.7 µM
TGI [47]: > 56.6 µM
TGI [48]: > 100 µM
TGI [49]: 45.4 µM
TGI [50]: 55 µM
TGI [51]: 31.7 µM
TGI [52]: > 100 µM
TGI [53]: > 58.8 µM
TGI [54]: > 100 µM
TGI [55]: 52.4 µM
TGI [56]: > 100 µM
TGI [57]: > 100 µM
TGI [58]: > 100 µM
